Source: patent publication EP3741750A1, “4-(1H-1,2,3-TRIAZOL-1-YL)PYRROLIDINE-2-CARBOXYLIC ACID DERIVATIVES HAVING ACTIVITY AGAINST PAIN” (ESTEVE PHARMACEUTICALS, S.A., priority 2019, dated 2020)

Target: Human α2δ-1 subunit of Cav2.2 calcium channel (Homo sapiens, UniProt P54289)
Assay: Human α2δ-1 subunit of Cav2.2 calcium channel assay ([3H]-Gabapentin radioligand binding)
Settings: Human α2δ-1 enriched membranes, 15 nM [3H]-Gabapentin, 60 min at 27 °C
Procedure: Human α2δ-1 subunit of Cav2.2 calcium channel assay
Human α2δ-1 enriched membranes (2.5 µg) were incubated with 15 nM of radiolabeled [3H]-Gabapentin in assay buffer containing Hepes-KOH 10mM, pH 7.4. NSB (non specific binding) was measured by adding 10 µM pregabalin. The binding of the tested compound was measured at either one concentration (% inhibition at 1 or 10 µM) or five different concentrations to determine affinity values (Ki). After 60 min incubation at 27 °C, binding reaction was terminated by filtering through Multiscreen GF/C (Millipore) presoaked in 0.5 % polyethyleneimine in Vacuum Manifold Station, followed by 3 washes with ice-cold filtration buffer containing 50 mM Tris-HCI, pH 7.4. Filter plates were dried at 60 °C for 1 h and 30 µL of scintillation cocktail were added to each well before radioactivity reading. Readings were performed in a Trilux 1450 Microbeta radioactive counter (Perkin Elmer).

Chain of Human α2δ-1 subunit of Cav2.2 calcium channel (P54289 25-1103): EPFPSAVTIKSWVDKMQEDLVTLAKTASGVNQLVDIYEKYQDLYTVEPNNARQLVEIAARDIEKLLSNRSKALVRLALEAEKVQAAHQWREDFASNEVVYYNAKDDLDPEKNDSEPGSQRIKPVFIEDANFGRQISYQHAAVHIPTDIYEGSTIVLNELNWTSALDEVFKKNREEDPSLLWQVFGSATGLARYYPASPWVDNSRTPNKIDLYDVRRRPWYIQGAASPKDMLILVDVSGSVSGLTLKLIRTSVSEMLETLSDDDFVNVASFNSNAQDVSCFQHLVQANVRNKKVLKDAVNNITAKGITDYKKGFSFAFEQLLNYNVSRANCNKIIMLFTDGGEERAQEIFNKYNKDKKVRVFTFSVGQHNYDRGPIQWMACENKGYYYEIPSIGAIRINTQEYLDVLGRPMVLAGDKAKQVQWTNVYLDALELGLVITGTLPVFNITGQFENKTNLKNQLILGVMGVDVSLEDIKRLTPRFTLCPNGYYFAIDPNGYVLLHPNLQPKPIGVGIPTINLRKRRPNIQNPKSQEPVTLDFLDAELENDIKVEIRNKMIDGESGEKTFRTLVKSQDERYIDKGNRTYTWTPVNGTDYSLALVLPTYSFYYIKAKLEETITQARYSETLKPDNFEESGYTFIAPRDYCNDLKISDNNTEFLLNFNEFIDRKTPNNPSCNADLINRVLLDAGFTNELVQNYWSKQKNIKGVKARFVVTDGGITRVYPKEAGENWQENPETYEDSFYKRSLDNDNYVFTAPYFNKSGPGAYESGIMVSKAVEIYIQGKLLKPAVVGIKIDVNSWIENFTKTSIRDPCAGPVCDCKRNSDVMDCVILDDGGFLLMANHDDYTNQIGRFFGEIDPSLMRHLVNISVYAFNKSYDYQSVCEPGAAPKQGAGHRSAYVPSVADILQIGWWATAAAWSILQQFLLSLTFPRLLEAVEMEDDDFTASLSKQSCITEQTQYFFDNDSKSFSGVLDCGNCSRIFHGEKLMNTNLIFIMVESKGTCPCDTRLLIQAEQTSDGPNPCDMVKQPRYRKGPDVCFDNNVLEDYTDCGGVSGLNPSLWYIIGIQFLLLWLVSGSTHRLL

Molecule	Ki
O=C(O)[C@@H]1C[C@H](n2cc(-c3cccc(F)c3)nn2)CN1 [Example 1, (2S,4S)-4-(4-(3-Fluorophenyl)-1H-1,2,3-triazol-1-yl)pyrrolidine-2-carboxylic acid]	< 0.5 µM
O=C(O)[C@@H]1C[C@H](n2cc(-c3cccc(Cl)c3)nn2)CN1 [Example 2, (2S,4S)-4-(4-(3-chlorophenyl)-1H-1,2,3-triazol-1-yl)pyrrolidine-2-carboxylic acid]	< 0.5 µM
COc1ccccc1-c1cn([C@@H]2CN[C@H](C(=O)O)C2)nn1 [Example 3, (2S,4S)-4-(4-(2-methoxyphenyl)-1H-1,2,3-triazol-1-yl)pyrrolidine-2-carboxylic acid]	≥ 5 µM
COc1cccc(-c2cn([C@@H]3CN[C@H](C(=O)O)C3)nn2)c1 [Example 4, (2S,4S)-4-(4-(3-methoxyphenyl)-1H-1,2,3-triazol-1-yl)pyrrolidine-2-carboxylic acid]	≥ 5 µM
COc1ccc(-c2cn([C@@H]3CN[C@H](C(=O)O)C3)nn2)cc1 [Example 6, (2S,4S)-4-(4-(4-methoxyphenyl)-1H-1,2,3-triazol-1-yl)pyrrolidine-2-carboxylic acid]	≥ 5 µM
O=C(O)[C@@H]1C[C@H](n2cc(-c3ccccc3)nn2)CN1 [Example 7, (2S,4S)-4-(4-phenyl-1H-1,2,3-triazol-1-yl)pyrrolidine-2-carboxylic acid]	0.5 to 5 µM
Cc1cccc(-c2cn([C@@H]3CN[C@H](C(=O)O)C3)nn2)c1 [Example 8, (2S,4S)-4-(4-(m-tolyl)-1H-1,2,3-triazol-1-yl)pyrrolidine-2-carboxylic acid]	≥ 5 µM
O=C(O)[C@@H]1C[C@H](n2cc(-c3ccccn3)nn2)CN1 [Example 9, (2S,4S)-4-(4-(pyridin-2-yl)-1H-1,2,3-triazol-1-yl)pyrrolidine-2-carboxylic acid]	0.5 to 5 µM
O=C(O)[C@@H]1C[C@H](n2cc(-c3ccc(F)c(F)c3)nn2)CN1 [Example 10, (2S,4S)-4-(4-(3,4-difluorophenyl)-1H-1,2,3-triazol-1-yl)pyrrolidine-2-carboxylic acid]	< 0.5 µM
COc1ccc(-c2cn([C@@H]3CN[C@H](C(=O)O)C3)nn2)c(Cl)c1 [Example 11, (2S,4S)-4-(4-(2-chloro-4-methoxyphenyl)-1H-1,2,3-triazol-1-yl)pyrrolidine-2-carboxylic acid]	≥ 5 µM
O=C(O)[C@@H]1C[C@H](n2cc(-c3ccccc3Cl)nn2)CN1 [Example 12, (2S,4S)-4-(4-(2-chlorophenyl)-1 H-1,2,3-triazol-1-yl)pyrrolidine-2-carboxylic acid]	0.5 to 5 µM
O=C(O)[C@@H]1C[C@H](n2cc(-c3ccc(Cl)cc3Cl)nn2)CN1 [Example 13, (2S,4S)-4-(4-(2,4-dichlorophenyl)-1H-1,2,3-triazol-1-yl)pyrrolidine-2-carboxylic acid]	≥ 5 µM
O=C(O)[C@@H]1C[C@H](n2cc(-c3ccc(Cl)c(Cl)c3)nn2)CN1 [Example 14, (2S,4S)-4-(4-(3,4-dichlorophenyl)-1H-1,2,3-triazol-1-yl)pyrrolidine-2-carboxylic acid]	0.5 to 5 µM
O=C(O)[C@@H]1C[C@H](n2cc(-c3cc(F)cc(F)c3)nn2)CN1 [Example 15, (2S,4S)-4-(4-(3,5-difluorophenyl)-1H-1,2,3-triazol-1-yl)pyrrolidine-2-carboxylic acid]	≥ 5 µM
O=C(O)[C@@H]1C[C@H](n2cc(Cc3ccccc3)nn2)CN1 [Example 16, (2S,4S)-4-(4-benzyl-1H-1,2,3-triazol-1-yl)pyrrolidine-2-carboxylic acid]	≥ 5 µM
O=C(O)[C@@H]1C[C@H](n2cc(-c3ccc(Br)cc3)nn2)CN1 [Example 17, (2S,4S)-4-(4-(4-bromophenyl)-1 H-1,2,3-triazol-1-yl)pyrrolidine-2-carboxylic acid]	0.5 to 5 µM
O=C(O)[C@@H]1C[C@H](n2cc(-c3cccnc3)nn2)CN1 [Example 18, (2S,4S)-4-(4-(pyridin-3-yl)-1H-1,2,3-triazol-1-yl)pyrrolidine-2-carboxylic acid]	≥ 5 µM
O=C(O)[C@@H]1C[C@H](n2cc(-c3ccncc3)nn2)CN1 [Example 19, (2S,4S)-4-(4-(pyridin-4-yl)-1H-1,2,3-triazol-1-yl)pyrrolidine-2-carboxylic acid]	≥ 5 µM
O=C(O)[C@@H]1C[C@H](n2cc(-c3cncc(Cl)c3)nn2)CN1 [Example 20, (2S,4S)-4-(4-(5-chloropyridin-3-yl)-1H-1,2,3-triazol-1-yl)pyrrolidine-2-carboxylic acid]	≥ 5 µM
N#Cc1cccc(-c2cn([C@@H]3CN[C@H](C(=O)O)C3)nn2)c1 [Example 21, (2S,4S)-4-(4-(3-cyanophenyl)-1H-1,2,3-triazol-1-yl)pyrrolidine-2-carboxylic acid]	≥ 5 µM
N#Cc1ccc(-c2cn([C@@H]3CN[C@H](C(=O)O)C3)nn2)cc1 [Example 22, (2S,4S)-4-(4-(4-cyanophenyl)-1H-1,2,3-triazol-1-yl)pyrrolidine-2-carboxylic acid]	≥ 5 µM
O=C(O)[C@@H]1C[C@H](n2cc(Cc3cccc(Cl)c3)nn2)CN1 [Example 23, (2S,4S)-4-(4-(3-chlorobenzyl)-1 H-1,2,3-triazol-1-yl)pyrrolidine-2-carboxylic acid]	≥ 5 µM
O=C(O)[C@@H]1C[C@H](n2cc(-c3cccc(Br)c3)nn2)CN1 [Example 24, (2S,4S)-4-(4-(3-bromophenyl)-1 H-1,2,3-triazol-1-yl)pyrrolidine-2-carboxylic acid]	0.5 to 5 µM
CN(C)Cc1cc(F)cc(-c2cn([C@@H]3CN[C@H](C(=O)O)C3)nn2)c1 [Example 25, (2S,4S)-4-(4-(3-((dimethylamino)methyl)-5-fluorophenyl)-1 H-1,2,3-triazol-1-yl)pyrrolidine-2-carboxylic acid]	≥ 5 µM
CNCc1cc(F)cc(-c2cn([C@@H]3CN[C@H](C(=O)O)C3)nn2)c1 [Example 26, (2S,4S)-4-(4-(3-fluoro-5-((methylamino)methyl)phenyl)-1H-1,2,3-triazol-1-yl)pyrrolidine-2-carboxylic acid]	≥ 5 µM
O=C(O)[C@@H]1C[C@H](n2cc(-c3cc(Cl)cc(Cl)c3)nn2)CN1 [Example 27, (2S,4S)-4-(4-(3,5-dichlorophenyl)-1H-1,2,3-triazol-1-yl)pyrrolidine-2-carboxylic acid]	≥ 5 µM
CN(Cc1ccccc1)Cc1cc(F)cc(-c2cn([C@@H]3CN[C@H](C(=O)O)C3)nn2)c1 [Example 28, (2S,4S)-4-(4-(3-((benzyl(methyl)amino)methyl)-5-fluorophenyl)-1H-1,2,3-triazol-1-yl)pyrrolidine-2-carboxylic acid]	≥ 5 µM
O=C(O)[C@@H]1C[C@H](n2cc(Cc3ccc(Cl)cc3)nn2)CN1 [Example 30, (2S,4S)-4-(4-(4-chlorobenzyl)-1 H-1,2,3-triazol-1-yl)pyrrolidine-2-carboxylic acid]	≥ 5 µM
(2S,4S)-4-(4-(3-((benzylamino)methyl)-5-fluorophenyl)-1H-1,2,3-triazol-1-yl)pyrrolidine-2-carboxylic acid [Example 29]	≥ 5 µM
(2S,4S)-4-(4-(4-fluorophenyl)-1 H-1,2,3-triazol-1-yl)pyrrolidine-2-carboxylic acid [Example 5]	0.5 to 5 µM
